Results: patent US9700572B2, “Anti-cancer agent” (priority 2012, dated 2017)

How the values were obtained:
[1] = test system: CD44+ESA+CD24+ pancreas cancer stem cell (Capan-1); test: Test Example 9: cancer stem cell marker staining (CD44, CD24, ESA), FACS; type: cell-based, human
Procedure: (§1) For preparation of the glucose-containing medium, 4.75 g of Dulbecco's modified Eagle medium 2 (Nissui Pharmaceutical) was dissolved in water, added by 12.5 ml of 1M HEPES pH 7.4 (DOJINDO LABORATORIES, 342-01375), sterilized, added by 18.5 ml of 10% NAHCO3, 10 ml of L-glutamine (Sigma-Aldrich), 5 ml of Anti-Anti (Life technologies), 5 ml of MEM NON-ESSENTIAL AMINO ACID SOLUTION (Sigma-Aldrich) and 50 ml of FETAL BOVINE SERUM (Biowest) that was inactivated in a warm bath at 56° C. for 30 minutes, and finally filled up to 500 ml. The glucose inhibition medium was prepared by adding 2-Deoxy-Glucose (2-DG) (Tokyo Chemical industry) in 15 mM of final concentration to the glucose-containing medium. The medium containing 4 μM arctigenin was prepared by adding arctigenin ([…] Pharmaceutical) in 4 μM of final concentration to the glucose-containing medium or the glucose inhibition medium. The pancreas cancer cell Capan-1 (ATCC No. HTB-79) was seeded in a glucose-containing medium, incubated overnight and then incubated in each of a glucose-containing medium, a glucose inhibition medium, a glucose-containing medium containing 4 μM arctigenin and a glucose inhibition medium containing 4 μM arctigenin, or in 7 μM cisplatin (CDDP: Wako Pure Chemical Industries) for 24 hours. After collected cells, PI staining (dead cell staining) and cancer stem cell marker staining were carried out according to the usual method and an Analysis was carried out using flow cytometry (FACS). For the marker, triple positive of CD44, CD24 and ESA (CD326) which was reported as a stern cell marker of pancreas cancer was used.

[2] = test system: pancreas cancer cell Capan-1; test: Test Example 9: PI staining (dead cell staining), FACS; type: cell-based, human; details: 24 hours
Procedure: as §1

[3] = cited from earlier work
[4] = test system: CD44+ESA+CD24+ pancreas cancer stem cell (PANC-1); test: Test Example 8: cancer stem cell marker staining (CD44, CD24, ESA), FACS; type: cell-based, human; details: 3 μM arctigenin
Procedure: (§2) For preparation of the glucose-containing medium, 4.75 g of Dulbecco's modified Eagle medium 2 (Nissui Pharmaceutical) was dissolved in water, added by 12.5 ml of 1M HEPES pH 7.4 (DOJINDO LABORATORIES, 342-01375), sterilized, added by 18.5 ml of 10% NAHCO3, 10 ml of L-glutamine (Sigma-Aldrich), 5 ml of Anti-Anti (Life technologies), 5 ml of MEM NON-ESSENTIAL AMINO ACID SOLUTION (Sigma-Aldrich) and 50 ml of FETAL BOVINE SERUM (Biowest) that was inactivated in a warm bath at 56° C. for 30 minutes, and finally filled up to 500 ml. The glucose inhibition medium was prepared by adding 2-Deoxy-Glucose (2-DG) (Tokyo Chemical Industry) in 20 mM of final concentration to the glucose-containing medium. The medium containing 3 μM arctigenin was prepared by adding arctigenin ([…] Pharmaceutical) in 3 μM of final concentration to the glucose-containing medium or the glucose inhibition medium. For preparation of FACS buffer, 10 g of Bovine serum albumin Protease free (Wako Pure Chemical industries) was dissolved in 1 L of PBS (-), added by sodium azide in 0.1% of final concentration and performed filtration sterilization. For the fluorescence-labeled antibody for FACS assays, CD44 (338803 or 338807, BioLegend), CD24 (311117, BioLegend), ESA (324205, BioLegend) and c-[…]-8858, eBioscience) were used. In addition, a staining step was carried out according to the attached data sheet to the product. The pancreas cancer cell PANC-1 (ATCC No CRL-1469 was seeded in a glucose-containing medium, incubated overnight and then incubated in each of the glucose-containing medium, the glucose inhibition medium, the glucose-containing medium containing 3 μM arctigenin and the glucose inhibition medium containing 3 μM arctigenin for 24 hours. After collected cells, PI staining (dead cell staining) and cancer stem cell marker staining were carried out according to the usual method and an Analysis was carried out using flow cytometry (FACS). For a marker, triple positive of CD44, CD24 and ESA (CD326) or double positive of CD44 positive and c-Met strong positive which were reported as a stem cell marker of pancreas cancer were used.

[5] = test system: pancreas cancer cell line PANC-1; details: PANC-1 screening; cited from earlier work
[6] = test system: CD44+,c-MetHigh pancreas cancer stem cell (PANC-1); test: Test Example 8: cancer stem cell marker staining (CD44, c-Met), FACS; type: cell-based, human; details: 3 μM arctigenin
Procedure: as §2

[7] = test system: human pancreas cancer cell line PSN-1; test: Test Example 6: antitumor evaluation in tumor model animal (PSN-1 Xenografts); type: in vivo, nude mouse; details: 50 μg per mouse orally five times a week; one month; FIG. 5
Procedure: (§3) The model animal of a tumor was made by seeding human pancreas cancer cell line CAPAN-1 or PSN-1 in subcutis of back of a nude mouse (BALB-cAJnu/nu; CLEA Japan, Inc.) as a donor and transplanting the tumor mass of the provided donor mouse into subcutis of back of a recipient mouse, Arctigenin (AG), arctiin (A) and the burdock fruit extract (Example 12) were dissolved in DMSO in concentration of 10 mg/ml, diluted with a saline, and then administered orally in stomach at 50 μg per one mouse five times a week. The anticancerous was evaluated by measuring the size of the subcutaneous tumor mass of the back with time.

[8] = test system: pancreas cancer cell PANC-1; test: Test Example 8: PI staining (dead cell staining), FACS; type: cell-based, human; details: 3 μM arctigenin
Procedure: For preparation of the glucose-containing medium, 4.75 g of Dulbecco's modified Eagle medium 2 (Nissui Pharmaceutical) was dissolved in water, added by 12.5 ml of 1M HEPES pH 7.4 (DOJINDO LABORATORIES, 342-01375), sterilized, added by 18.5 ml of 10% NAHCO3, 10 ml of L-glutamine (Sigma-Aldrich), 5 ml of Anti-Anti (Life technologies), 5 ml of MEM NON-ESSENTIAL AMINO ACID SOLUTION (Sigma-Aldrich) and 50 ml of FETAL BOVINE SERUM (Biowest) that was inactivated in a warm bath at 56° C. for 30 minutes, and finally filled up to 500 ml. The glucose inhibition medium was prepared by adding 2-Deoxy-Glucose (2-DG) (Tokyo Chemical Industry) in 20 mM of final concentration to the glucose-containing medium. The medium containing 3 μM arctigenin was prepared by adding arctigenin ([…] Pharmaceutical) in 3 μM of final concentration to the glucose-containing medium or the glucose inhibition medium. For preparation of FACS buffer, 10 g of Bovine serum albumin Protease free (Wako Pure Chemical industries) was dissolved in 1 L of PBS (-), added by sodium azide in 0.1% of final concentration and performed filtration sterilization. The pancreas cancer cell PANC-1 (ATCC No CRL-1469 was seeded in a glucose-containing medium, incubated overnight and then incubated in each of the glucose-containing medium, the glucose inhibition medium, the glucose-containing medium containing 3 μM arctigenin and the glucose inhibition medium containing 3 μM arctigenin for 24 hours. After collected cells, PI staining (dead cell staining) and cancer stem cell marker staining were carried out according to the usual method and an Analysis was carried out using flow cytometry (FACS). For a marker, triple positive of CD44, CD24 and ESA (CD326) or double positive of CD44 positive and c-Met strong positive which were reported as a stem cell marker of pancreas cancer were used.

[9] = test system: human pancreas cancer cell line CAPAN-1; test: Test Example 6: antitumor evaluation in tumor model animal (CAPAN-1 Xenografts); type: in vivo, nude mouse; details: 50 μg per mouse orally five times a week; one month; FIG. 4
Procedure: as §3

N.N.[Cl][Pt][Cl] [cisplatin, reference compound]
number of the survival of CD44+ESA+CD24+ cell ([1]; 7 μM cisplatin treatment): 88 | ratio of CD44+ESA+CD24+ cell analyzed in viable cells ([1]; 7 μM cisplatin treatment): 2.02% | ratio of CD44+ESA+CD24+ cell in all analyzed cells ([1]; 7 μM cisplatin treatment): 1.17% | cellular survival rate (PI staining) ([2]; 7 μM cisplatin): 58.08%

COc1ccc(C[C@H]2COC(=O)[C@@H]2Cc2ccc(O[C@@H]3O[C@H](CO)[C@@H](O)[C@H](O)[C@H]3O)c(OC)c2)cc1OC [arctiin]
solubility in water [3]: hardly soluble

COc1cc(C[C@H]2C(=O)OC[C@@H]2Cc2ccc(OC)c(OC)c2)ccc1O [arctigenin]
ratio of CD44+ESA+CD24+ cell in all analyzed cells ([4]; glucose inhibition condition, without arctigenin 6.51%): 0.98% | number of the survival of CD44+ESA+CD24+ cell ([4]; glucose inhibition condition, without arctigenin 651): 98 | ratio of CD44+ESA+CD24+ cell in all analyzed cells ([4]; glucose-containing condition, without arctigenin 4.41%): 5.01% | number of the survival of CD44+ESA+CD24+ cell ([4]; glucose-containing condition, without arctigenin 441): 501 | ratio of CD44+ESA+CD24+ cell in all analyzed cells ([1]; 4 μM arctigenin, glucose inhibition condition, without arctigenin 1.40%): 0.24% | ratio of CD44+ESA+CD24+ cell analyzed in viable cells ([1]; 4 μM arctigenin, glucose inhibition condition, without arctigenin 1.77%): 0.50% | number of the survival of CD44+ESA+CD24+ cell ([1]; 4 μM arctigenin, glucose inhibition condition, without arctigenin 105): 18 | ratio of CD44+ESA+CD24+ cell in all analyzed cells ([1]; 4 μM arctigenin, glucose-containing condition, without arctigenin 0.87%): 1.04% | ratio of CD44+ESA+CD24+ cell analyzed in viable cells ([1]; 4 μM arctigenin, glucose-containing condition, without arctigenin 1.28%): 1.43% | number of the survival of CD44+ESA+CD24+ cell ([1]; 4 μM arctigenin, glucose-containing condition, without arctigenin 65): 78 | cancel the viability of tumor cells under undernutrition condition [5]: effective | positive ratio of CD44+,c-MetHigh cell in all analyzed cells ([6]; glucose inhibition condition, without arctigenin 0.78%): 0.22% | number of the survival of CD44+,c-MetHigh cell ([6]; glucose inhibition condition, without arctigenin 47): 13 | positive ratio of CD44+,c-MetHigh cell in all analyzed cells ([6]; glucose-containing condition, without arctigenin 0.63%): 0.52% | number of the survival of CD44+,c-MetHigh cell ([6]; glucose-containing condition, without arctigenin 38): 31 | antitumor effect (size of subcutaneous tumor mass) [7]: antitumor effect was also obtained | cellular survival rate (PI staining) ([2]; 4 μM arctigenin, glucose inhibition condition (15 mM 2-DG), without arctigenin 79.10%): 48.73% | cellular survival rate (PI staining) ([2]; 4 μM arctigenin, glucose-containing condition, without arctigenin 67.57%): 72.80% | cellular survival rate (PI staining) ([8]; glucose inhibition condition (20 mM 2-DG), 24 hours, FIG. 6, without arctigenin 68.53%): 35.71% | cellular survival rate (PI staining) ([8]; glucose inhibition condition, FIG. 7, without arctigenin 88.80%): 27.50% | cellular survival rate (PI staining) ([8]; glucose-containing condition, 24 hours, FIG. 6, without arctigenin 78.20%): 69.50% | cellular survival rate (PI staining) ([8]; glucose-containing condition, FIG. 7, without arctigenin 84.70%): 83.30% | antitumor effect (size of subcutaneous tumor mass) [9]: antitumor effect was also obtained | solubility in water [3]: hardly soluble
